From patent US20230303497A1, “BENZYLAMINE OR BENZYL ALCOHOL DERIVATIVE AND USES THEREOF” (CHENGDU HYPERWAY PHARMACEUTICALS CO., LTD, priority 2020, published 2023)
Read-outs that look alike come from different tables or passages of the source.

Key:
human NaV1.8 ion channel = human NaV1.8 ion channel (Homo sapiens (Human), UniProt Q9Y5Y9); experiment: Compound inhibition activity on human NaV1.8 ion channel in HEK293 cells (whole-cell patch clamp); assay type: cell-based; conditions: 100 nm concentration, HEK293 cells, resting protocol; for inhibition at 0.1 µM: read-out: Inhibition ratio of compounds against Nav1.8 (Activity of inhibition)
human NaV1.8 ion channel, sequence (Q9Y5Y9 whole entry): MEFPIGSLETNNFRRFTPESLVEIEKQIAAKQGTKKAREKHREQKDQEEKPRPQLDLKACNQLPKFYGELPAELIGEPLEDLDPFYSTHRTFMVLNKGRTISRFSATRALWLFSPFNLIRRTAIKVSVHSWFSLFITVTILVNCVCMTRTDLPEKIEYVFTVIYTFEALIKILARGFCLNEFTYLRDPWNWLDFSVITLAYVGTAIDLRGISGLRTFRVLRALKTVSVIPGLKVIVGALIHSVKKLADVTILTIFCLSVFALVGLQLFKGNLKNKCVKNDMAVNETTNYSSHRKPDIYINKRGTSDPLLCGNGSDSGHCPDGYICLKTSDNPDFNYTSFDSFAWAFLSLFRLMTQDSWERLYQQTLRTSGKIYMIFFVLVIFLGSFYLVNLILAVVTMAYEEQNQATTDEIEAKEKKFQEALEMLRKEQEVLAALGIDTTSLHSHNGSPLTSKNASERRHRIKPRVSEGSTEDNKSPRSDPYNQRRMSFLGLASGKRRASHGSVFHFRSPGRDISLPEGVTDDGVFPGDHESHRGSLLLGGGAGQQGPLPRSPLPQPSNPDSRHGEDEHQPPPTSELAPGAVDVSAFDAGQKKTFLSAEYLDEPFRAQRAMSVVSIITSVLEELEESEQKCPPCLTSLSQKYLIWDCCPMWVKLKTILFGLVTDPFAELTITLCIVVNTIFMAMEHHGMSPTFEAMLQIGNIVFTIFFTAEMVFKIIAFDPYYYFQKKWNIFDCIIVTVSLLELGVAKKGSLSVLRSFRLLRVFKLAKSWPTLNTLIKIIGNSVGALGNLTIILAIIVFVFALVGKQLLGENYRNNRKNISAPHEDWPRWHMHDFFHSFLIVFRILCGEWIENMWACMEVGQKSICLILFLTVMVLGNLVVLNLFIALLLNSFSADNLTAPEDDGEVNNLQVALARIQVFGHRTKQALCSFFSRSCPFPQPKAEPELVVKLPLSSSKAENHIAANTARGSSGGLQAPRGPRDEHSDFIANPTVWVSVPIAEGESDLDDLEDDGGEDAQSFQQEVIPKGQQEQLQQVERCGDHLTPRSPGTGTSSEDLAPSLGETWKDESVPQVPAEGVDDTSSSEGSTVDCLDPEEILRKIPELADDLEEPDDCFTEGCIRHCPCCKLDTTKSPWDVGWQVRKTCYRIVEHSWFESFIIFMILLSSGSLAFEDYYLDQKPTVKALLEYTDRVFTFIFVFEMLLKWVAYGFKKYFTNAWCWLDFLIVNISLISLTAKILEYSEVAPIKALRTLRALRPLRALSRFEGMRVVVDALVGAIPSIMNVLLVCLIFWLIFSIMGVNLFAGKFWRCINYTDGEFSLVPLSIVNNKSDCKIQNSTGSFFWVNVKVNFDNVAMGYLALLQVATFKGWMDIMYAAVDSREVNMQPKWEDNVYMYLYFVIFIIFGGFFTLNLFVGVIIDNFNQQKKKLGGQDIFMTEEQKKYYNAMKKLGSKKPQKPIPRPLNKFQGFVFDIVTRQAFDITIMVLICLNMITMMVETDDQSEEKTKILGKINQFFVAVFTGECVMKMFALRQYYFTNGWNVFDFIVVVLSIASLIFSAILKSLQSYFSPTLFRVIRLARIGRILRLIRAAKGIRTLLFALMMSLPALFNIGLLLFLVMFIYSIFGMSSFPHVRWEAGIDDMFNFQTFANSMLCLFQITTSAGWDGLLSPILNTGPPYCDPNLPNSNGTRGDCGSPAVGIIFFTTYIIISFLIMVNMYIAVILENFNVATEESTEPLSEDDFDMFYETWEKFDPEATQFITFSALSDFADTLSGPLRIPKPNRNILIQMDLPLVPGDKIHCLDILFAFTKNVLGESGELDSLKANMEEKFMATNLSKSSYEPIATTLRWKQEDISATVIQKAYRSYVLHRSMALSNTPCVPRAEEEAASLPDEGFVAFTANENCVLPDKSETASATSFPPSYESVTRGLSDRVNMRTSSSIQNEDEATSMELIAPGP

hERG ion channels = hERG ion channels (Homo sapiens (Human), UniProt Q12809); experiment: Inhibition activity test on hERG ion channels in HEK293 cells (cardiac safety, patch clamp)
hERG ion channels, sequence (Q12809 whole entry): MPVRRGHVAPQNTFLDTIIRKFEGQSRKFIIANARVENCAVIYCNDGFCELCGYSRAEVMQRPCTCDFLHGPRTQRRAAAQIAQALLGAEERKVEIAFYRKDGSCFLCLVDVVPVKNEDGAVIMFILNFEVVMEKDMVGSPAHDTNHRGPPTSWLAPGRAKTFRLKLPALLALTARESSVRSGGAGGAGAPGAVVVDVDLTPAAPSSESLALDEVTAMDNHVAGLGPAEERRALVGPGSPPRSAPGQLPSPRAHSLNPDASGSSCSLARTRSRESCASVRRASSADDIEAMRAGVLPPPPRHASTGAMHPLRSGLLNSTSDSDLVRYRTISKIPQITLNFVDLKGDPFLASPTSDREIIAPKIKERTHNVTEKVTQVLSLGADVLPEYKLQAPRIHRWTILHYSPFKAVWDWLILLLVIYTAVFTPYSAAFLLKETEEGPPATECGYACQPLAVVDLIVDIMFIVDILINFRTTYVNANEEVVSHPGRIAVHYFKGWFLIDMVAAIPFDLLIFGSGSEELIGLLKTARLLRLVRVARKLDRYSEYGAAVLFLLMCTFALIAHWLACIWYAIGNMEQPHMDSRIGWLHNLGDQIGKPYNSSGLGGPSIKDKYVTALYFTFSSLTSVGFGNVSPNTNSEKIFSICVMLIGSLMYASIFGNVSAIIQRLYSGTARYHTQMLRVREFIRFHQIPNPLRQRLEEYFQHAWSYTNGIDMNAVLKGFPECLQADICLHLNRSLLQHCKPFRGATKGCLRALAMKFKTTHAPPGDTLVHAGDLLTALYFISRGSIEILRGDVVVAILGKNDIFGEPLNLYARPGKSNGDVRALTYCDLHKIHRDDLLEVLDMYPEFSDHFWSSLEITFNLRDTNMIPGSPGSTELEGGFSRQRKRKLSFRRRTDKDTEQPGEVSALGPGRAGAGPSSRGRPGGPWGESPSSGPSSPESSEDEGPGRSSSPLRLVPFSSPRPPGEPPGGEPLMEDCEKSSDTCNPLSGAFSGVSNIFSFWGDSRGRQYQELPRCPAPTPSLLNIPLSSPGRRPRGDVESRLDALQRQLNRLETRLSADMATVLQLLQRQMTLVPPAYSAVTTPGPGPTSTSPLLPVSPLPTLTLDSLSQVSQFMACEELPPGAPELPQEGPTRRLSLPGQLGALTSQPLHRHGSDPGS
Experimental: This experiment is used as a cardiac safety test of compound.
The reagents are purchased from Sigma (St. Louis, MO) except NaOH and KOH for acid-base titration. Final concentrations of tested solutions are prepared on the testing day and dissolved in extracellular fluid. […] All the test solutions and the control solutions contain 0.3% DMSO. Intracellular fluid (mM) contains: K Aspartate, 130; MgCl2, 5; EGTA 5; HEPES, 10; Tris-ATP 4; pH 7.2 (KOH titration).
Cells: all experiments is performed at room temperature. Each cell itself is taken as the corresponding control.
Compounds are all perfused using a perfusion system that utilizes the gravity. At least two cells are tested per concentration. After current stabilization (or 5 minutes), the change in current magnitude before and after the use of the compound is compared to calculate the blocking effect of the compound.
The method of operation is the same as that of the test compound.
Electrophysiology: Transfer the Cells to the perfusion tank and perfuse with extracellular fluid. The intracellular fluid (mM) contains: K Aspartate, 130; MgCl2, 5; EGTA 5; HEPES, 10; Tris-ATP 4; pH 7.2 (KOH titration). The intracellular fluid is stored in small quantities in portions in a −80° C. refrigerator, and melt on the day of the experiment. Electrodes are drawn with PC-10 (Narishige, Japan). Recording is performed with whole-cell diaphragm clamp. Noise is filtered with one-fifth of the sampling frequency.
This process is repeated every 20 seconds. The hERG tail current is the pure hERG current. The maximum tail current triggered by the second square wave is detected, and when the current is stabilized, the test compound is perfused. The strength of the block is calculated when the response is stabilized.

NaV1.1 = NaV1.1 (Homo sapiens (Human), UniProt P35498); experiment: Selectivity test for Nav ion channel subtypes: NaV1.1 (HEK293, patch clamp); assay type: cell-based; conditions: 1 uM; HEK293 cells
Experimental: (§1) Test Case 3: Compound Selectivity Test for Nav Ion Channel Subtypes
(§2) The aim of this test is to investigate effect of compounds on human Na ion channel cells expressed in steady-state (NaV1.1, NaV1.3, NaV1.4, NaV1.5, NaV1.6, NaV1.7). After Na ion currents is stabilized, the effect can be obtained by comparing the magnitude of Na channel currents before and after the application of the compounds.
(§3) The test compound is stored at a concentration of 9 mM in dimethyl sulfoxide (DMSO), and on the day of testing, dissolve in extracellular solution, then prepare to a screening concentration of 1 uM.
(§4) All experiments are performed at room temperature. Each cell itself is taken as the corresponding control.
(§5) At least one cell is tested per concentration.
(§6) HEK293 cells steadily expressing NaV1.1-, NaV1.3-, NaV1.4-, NaV1.5-, NaV1.6-ion channels; CHO cells expressing steadily NaV1.7 ion channel.
(§7) The intracellular fluid (mM) is: Aspartic acid, 140; MgCl2, 2; EGTA 11; HEPES, 10; pH 7.2 (CsOH titration). […] Electrodes are drawn with PC-10 (Narishige, Japan). Recording is performed with whole-cell diaphragm clamp.
(§8) Cells are clamped at −80 mV and then depolarized to −10 mV with a sustained 10 ms square wave to obtain Na ion channel currents (see the FIGURE). This process is repeated every 5 seconds. […] The strength of the block is calculated after the response is stabilized.

NaV1.3 = NaV1.3 (Homo sapiens (Human), UniProt Q9NY46); experiment: Selectivity test for Nav ion channel subtypes: NaV1.3 (HEK293, patch clamp); assay type: cell-based; conditions: 1 uM; HEK293 cells
NaV1.3, sequence (Q9NY46 whole entry): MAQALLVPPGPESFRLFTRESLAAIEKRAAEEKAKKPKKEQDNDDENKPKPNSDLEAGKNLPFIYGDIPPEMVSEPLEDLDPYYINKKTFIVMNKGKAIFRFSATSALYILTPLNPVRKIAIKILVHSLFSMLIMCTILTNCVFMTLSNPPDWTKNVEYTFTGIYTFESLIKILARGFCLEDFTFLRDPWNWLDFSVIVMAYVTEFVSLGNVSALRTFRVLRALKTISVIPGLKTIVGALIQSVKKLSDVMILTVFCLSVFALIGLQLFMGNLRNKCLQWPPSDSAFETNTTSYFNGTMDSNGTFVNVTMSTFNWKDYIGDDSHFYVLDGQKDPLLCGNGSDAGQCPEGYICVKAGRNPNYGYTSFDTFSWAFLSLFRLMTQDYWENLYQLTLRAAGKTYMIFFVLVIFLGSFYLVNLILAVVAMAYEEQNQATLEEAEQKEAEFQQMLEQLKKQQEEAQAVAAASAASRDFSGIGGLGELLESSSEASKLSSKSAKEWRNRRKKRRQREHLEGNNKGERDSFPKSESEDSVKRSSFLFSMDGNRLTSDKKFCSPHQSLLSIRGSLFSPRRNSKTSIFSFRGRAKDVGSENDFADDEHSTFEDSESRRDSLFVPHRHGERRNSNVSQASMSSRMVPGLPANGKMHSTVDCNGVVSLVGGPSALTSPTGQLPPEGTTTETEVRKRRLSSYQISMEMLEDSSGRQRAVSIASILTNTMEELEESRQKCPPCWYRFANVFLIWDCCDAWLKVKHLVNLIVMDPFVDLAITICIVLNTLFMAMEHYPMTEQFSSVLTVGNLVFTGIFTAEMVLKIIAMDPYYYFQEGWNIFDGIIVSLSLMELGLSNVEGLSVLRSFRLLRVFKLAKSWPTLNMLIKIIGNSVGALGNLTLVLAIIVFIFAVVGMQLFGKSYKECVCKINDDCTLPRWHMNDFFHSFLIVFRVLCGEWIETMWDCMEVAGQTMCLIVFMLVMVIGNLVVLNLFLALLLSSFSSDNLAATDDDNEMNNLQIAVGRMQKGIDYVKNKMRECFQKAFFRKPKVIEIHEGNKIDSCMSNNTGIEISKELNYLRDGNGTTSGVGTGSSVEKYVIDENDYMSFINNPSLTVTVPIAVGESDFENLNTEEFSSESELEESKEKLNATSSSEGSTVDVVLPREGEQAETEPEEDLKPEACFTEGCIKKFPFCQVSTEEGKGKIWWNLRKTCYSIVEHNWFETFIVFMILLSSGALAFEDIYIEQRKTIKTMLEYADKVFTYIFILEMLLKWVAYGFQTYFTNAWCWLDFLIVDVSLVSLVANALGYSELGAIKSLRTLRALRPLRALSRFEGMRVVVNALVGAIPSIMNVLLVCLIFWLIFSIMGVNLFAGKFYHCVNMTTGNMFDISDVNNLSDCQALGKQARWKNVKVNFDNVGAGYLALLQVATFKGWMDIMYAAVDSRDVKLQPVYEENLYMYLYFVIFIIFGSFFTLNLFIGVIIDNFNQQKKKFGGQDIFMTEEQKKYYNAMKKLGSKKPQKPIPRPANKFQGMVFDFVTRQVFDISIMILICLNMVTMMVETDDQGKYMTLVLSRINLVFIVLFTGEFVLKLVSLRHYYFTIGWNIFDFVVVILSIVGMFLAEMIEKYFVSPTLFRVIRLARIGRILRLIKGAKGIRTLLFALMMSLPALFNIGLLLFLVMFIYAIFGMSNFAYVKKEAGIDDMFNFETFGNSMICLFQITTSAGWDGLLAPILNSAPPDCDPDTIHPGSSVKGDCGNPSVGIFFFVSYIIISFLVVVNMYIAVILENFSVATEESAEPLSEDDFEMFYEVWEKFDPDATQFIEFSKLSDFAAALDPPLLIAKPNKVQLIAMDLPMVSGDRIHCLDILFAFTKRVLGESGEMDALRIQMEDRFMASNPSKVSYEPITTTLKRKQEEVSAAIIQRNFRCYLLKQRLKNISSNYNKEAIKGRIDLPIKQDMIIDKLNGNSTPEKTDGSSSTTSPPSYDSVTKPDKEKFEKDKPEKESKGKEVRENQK
Experimental: as §1, §2, §3, §4, §5, §6, §7, §8

NaV1.4 = NaV1.4 (Homo sapiens (Human), UniProt P35499); experiment: Selectivity test for Nav ion channel subtypes: NaV1.4 (HEK293, patch clamp); assay type: cell-based; conditions: 1 uM; HEK293 cells
Experimental: as §1, §2, §3, §4, §5, §6, §7, §8

NaV1.5 = NaV1.5 (Homo sapiens (Human), UniProt Q14524); experiment: Selectivity test for Nav ion channel subtypes: NaV1.5 (HEK293, patch clamp); assay type: cell-based; conditions: 1 uM; HEK293 cells
Experimental: as §1, §2, §3, §4, §5, §6, §7, §8

NaV1.6 = NaV1.6 (Homo sapiens (Human), UniProt Q9UQD0); experiment: Selectivity test for Nav ion channel subtypes: NaV1.6 (HEK293, patch clamp); assay type: cell-based; conditions: 1 uM; HEK293 cells
Experimental: as §1, §2, §3, §4, §5, §6, §7, §8

NaV1.7 = NaV1.7 (Homo sapiens (Human), UniProt Q15858); experiment: Selectivity test for Nav ion channel subtypes: NaV1.7 (CHO cells, patch clamp); assay type: cell-based; conditions: 1 uM
Experimental: as §1, §2, §3, §4, §5, §6, §7, §8

[1] = In vivo pharmacokinetic testing of compounds in rats; conditions: male SD rats, single oral dose 100 mg/kg, plasma, VX-150 dosed as prodrug, active form analysed
Experimental: Test Case 4: In Vivo Pharmacokinetic Testing of Compounds in Rats
All SD rats in the test are male and are purchased from Shanghai Sippe-Bk Lab Animal Co., Ltd. Each compound is administered orally (100 mg/kg, 3 rats per group) at single dose to SD rats for pharmacokinetic study. The solutions are prepared on the same day of administration, e.g., the tested compound is suspended in 5% DMSO+95% saline, get vortexed for 2 min, and sonicated for 5 min to prepare a drug delivery system. The animals are fasted for 10-14 hours before oral administration, and resumed food 4 hours after administration. After oral administration by gavage in SD rats, pharmacokinetic samples are collected from jugular vein at the following time points: 0, 15 min, 30 min, 1 h, 2 h, 4 h, 6 h, 8 h and 24 h. Three whole blood samples are collected at each time point in a volume of about 0.2 mL and anticoagulated using sodium heparin. Blood samples are placed on ice immediately after collection and plasma is separated by centrifugation within 1 h (centrifugation conditions: 6800 rpm, 6 min, 2-8° C.). The collected plasma is stored in a −80° C. refrigerator prior to analysis.
In pharmacokinetic tests in rat, the control compound VX-150 is a prodrug (WO2015089361, compound 9), after administration, analysis is performed to test its active form (WO2014120808, compound 10). The aforementioned in vitro pharmacological tests are performed using the active ingredient (WO2014120808, compound 10).

Row | Compound | inhibition at 0.1 µM (human NaV1.8 ion channel) | IC50 (hERG ion channels; human, pH 7.4) | Inhibition ratio on Nav1.1 (NaV1.1) | Inhibition ratio on Nav1.3 (NaV1.3) | Inhibition ratio on Nav1.4 (NaV1.4) | Inhibition ratio on Nav1.5 (NaV1.5) | Inhibition ratio on Nav1.6 (NaV1.6) | Inhibition ratio on Nav1.7 (NaV1.7) | half-life ([1]; rat) | AUC ([1]; rat, read-out: AUC) | Cmax ([1]; rat, read-out: Cmax) | IC50 (hERG ion channels) | Inhibition ratio of Nav1.8 (Activity of inhibition) (human NaV1.8 ion channel) | AUC [1] | Cmax [1] | T1/2 [1]
1 | Cc1cc(F)ccc1Oc1cc(C(F)(F)F)c(Cl)cc1C(=O)Nc1cnnc(OC[C@H](O)CO)c1 [Example 116] | 50 to 80% | 15.6 µM | 1.2% | 3.7% | <1% | <1% | 2.6% | <1% | 8.7 h | 42500 ng·h/mL | 2570 ng/mL | – | – | – | – | –
2 | Cc1cc(F)ccc1Oc1cc(C(F)(F)F)c(Cl)cc1C(=O)Nc1ccc(F)c(OC[C@H](O)CNC(=O)CO)c1 [Example 117] | > 80% | – | <1% | 1.2% | <1% | 5.0% | <1% | <1% | 3 h | 114000 ng·h/mL | 9570 ng/mL | 6 µM | – | – | – | –
3 | Cc1cc(F)ccc1Oc1cc(C2CC2)c(C(F)(F)F)cc1C(=O)Nc1ccc(F)c(OC[C@H](O)CNC(=O)CO)c1 [Example 119] | > 80% | 4.2 µM | <1% | <1% | 1.4% | 2.8% | 5.1% | <1% | 1.9 h | 44500 ng·h/mL | 5190 ng/mL | – | – | – | – | –
4 | Cc1cc(F)ccc1Oc1cc(C(F)(F)F)ccc1C(=O)Nc1ccn(COP(=O)(O)O)c(=O)c1 [VX-150, reference compound] | – | – | <1% | 2.2% | 3.6% | 15.4% | 1.7% | 8.7% | – | – | – | 7 µM | B (80 > B >= 50) | 13859 ng·h/mL | 1176 ng/mL | 2.2 h
